Data published in PMC5655689, “Therapeutic potential of the phosphino Cu(I) complex (HydroCuP) in the treatment of solid tumors” (Scientific Reports, 2017).

Experiments:
[1] = Tissue distribution of copper in LLC-bearing mice (GF-AAS); format: in vivo, mouse; conditions: single i.p. 50 mg/kg on day 10, 24 h
Protocol: To better understand the pharmacology and toxicology of the novel copper(I) complex, tissue samples, collected from LCC-bearing C57BL mice were analysed. […] On day 10 after tumor implantation, mice were treated with a single i.p. injection of 50 mg/kg of HydroCuP. After 24 hours, animals were sacrificed and copper content was quantified by graphite furnace atomic absorption spectroscopy (GF-AAS) analysis in several organs and normalized to control mice tissues. The solid tumor mass presented the highest copper concentration (at least 1.4 times higher than that detected in spleen), followed by spleen, kidney, liver and stomach.
Figure 3 Tissue distribution in LLC bearing C57BL mice. C57BL mice were inoculated i.m. on the right flank with LLC cells (2 × 10^6). After 10 days, HydroCuP was administered i.p. at a dose of 50 mg/kg. The mice were sacrificed after 24 hours and tumor, brain, spleen, kidney, intestine, liver and stomach were excised. Tissues were washed in ice-cold saline and weighed after removing excess fluid. All samples were mineralized in HNO3 and Cu content in each sample was measured by GF-AAS.
C57BL mice were inoculated […]. on the right flank with LLC cells (2 × 10^6). […] All samples were mineralized in HNO3 and Cu content in each sample was measured by GF-AAS (Graphite Furnace Atomic Absorption Spectroscopy).

[2] = tested on: HCT-15 human colon cancer spheroids; test: 3D spheroid cell viability, acid phosphatase (APH) assay, HCT-15; format: cell-based; conditions: HCT-15 spheroids, 72 h
Protocol: In order to improve the predictive capacity of the in vitro assays, we tested HydroCuP activity in two 3D cell cultures of human colon cancer cells, HCT-15 and LoVo. The colon cancer spheroids were treated with HydroCuP for 72 h and the cell viability was assessed by means of the acid phosphatase (APH) assay (Fig. 1, panel A).
Figure 1 Activity in 3D cell cultures. (A) Spheroids (2.5 × 10^3 cells/well) were treated for 72 h with increasing concentrations of tested compounds. The growth inhibitory effect was evaluated by means of APH test. IC50 values were calculated from the dose-survival curves by four parameter logistic model (P < 0.05). SD = standard deviation.
Spheroids were initiated in liquid overlay by seeding 2.5 × 10^3 HCT-15 and LoVo cells/well in phenol red-free RPMI-1640 medium (Sigma Chemical Co.), containing 10% FCS and supplemented with 20% methyl cellulose stock solution. A total of 150 μl of this cell suspension was transferred to each well of a round bottom non-tissue culture treated 96 well-plate (Greiner Bio-one, Kremsmünster, Austria) to allow spheroid formation within 72 h.
A modified APH assay, which is based on quantification of cytosolic acid phosphatase activity, was used for determining cell viability in spheroids. Briefly, the pre-seeded spheroids were treated with fresh medium containing the compound to be studied at the appropriate concentration (range 5–150 μM). Triplicate cultures were established for each treatment. After 72 h, each well was treated with 100 μL of the assay buffer (0.1 M sodium acetate, 0.1% Triton-X-100, supplemented with ImmunoPure p-nitrophenyl phosphate; Sigma Chemical Co.) and, following 3 h of incubation, 10 μL of 1 M NaOH solution were added. The inhibition of the cell growth induced by the tested complexes was detected by measuring the absorbance of each well at 405 nm, using a Bio-Rad 680 microplate reader. Mean absorbance for each drug dose was expressed as a percentage of the control untreated well absorbance (T/C) and plotted vs drug concentration. IC50 values, the drug concentrations that reduce the mean absorbance at 405 nm 50% of those in the untreated control wells, were calculated by four-parameter logistic (4-PL) model. Evaluation was based on means from at least four independent experiments.

[3] = Nephrotoxicity: urinary biomarkers (uTP, NAG) in Sprague Dawley rats; format: in vivo, rat; conditions: single i.p. HydroCuP 50 mg/kg vs CDDP 1.5 mg/kg
Protocol: Figure 5 Neurotoxicity studies. […] Bar: 500 µm. […] Nephrotoxicity studies. […] Error bars indicate the S.D. The potential nephrotoxic effect of HydroCuP was evaluated by measuring some specific biomarkers in urines obtained from 8-week-old male Sprague Dawley rats treated with a single i.p. injection of HydroCuP and CDDP. Urines of the treated animals were collected after 24, 72 and 120 h, and urinary total protein (uTP) and N-acetyl-β-D-glucosaminidase (NAG) were evaluated as signs of nephrotoxicity. […] On the contrary, treatment with HydroCuP determined a 24 h excretion of uTP roughly 12 times lower than that recorded with CDDP (Fig. 5, panel D). Following 120 h, the levels of uTP excreted by HydroCuP were 11 times lower compared with the reference metallodrug. Eight-week-old male Sprague Dawley rats were randomly allocated to five groups (five animals per group) and treated with a single i.p. injection of HydroCuP (50 mg/kg) or the vehicle solution (0.2 mL saline solution, control). Cisplatin (1.5 mg/kg,) was also used under the same experimental conditions for comparison purposes. […] Later, urines were centrifuged (150 g for 10 minutes at room temperature) to discard debris and aliquoted to measure creatinine, uTP and NAG. Urine creatinine assays were performed using creatinine assay kit from Sigma Chemical Co. (St. Louis, MO). uTPs were measured by means of BioRad Total Protein Test (Hercules, CA). Urinary NAG was measured spectrophotometrically with the NAG kit (Roche diagnostics, Basel, Switzerland) according to the manufacturer’s protocols. uTP and NAG are expressed as grams per millimoles of creatinine (g mmol^−1 creatinine).

F[P-](F)(F)(F)(F)F.OC[P+](CO)(CO)[Cu-3]([P+](CO)(CO)CO)([P+](CO)(CO)CO)[P+](CO)(CO)CO [HydroCuP, [Cu(thp)4][PF6]]
Copper content in brain with respect to control animals [1]: no enhance in copper content was detectable in brain | Copper concentration in tumor mass, times higher than in spleen ([1]; normalized to control mice tissues): at least 1.4 | IC50 fold lower than CDDP [2]: about 2.5 | IC50 ([2]; APH test, read-out: IC50 (μM) ± SD HCT-15): 27 ± 4.25 µM | NAG activity, times lower than CDDP ([3]; urine 24, 72, 120 h): up to 12 | 24 h excretion of uTP, times lower than CDDP ([3]; urine 24 h): roughly 12 | uTP excreted, times lower than CDDP ([3]; urine 120 h): 11
